Our source for the IC50 values is ChEMBL document CHEMBL1795325, “Studying synergism of methyl linked cyclohexyl thiophenes with triazole: synthesis and their cdk5/p25 inhibition activity” (Eur J Med Chem, 2011).

This experiment addresses Cyclin-dependent kinase 5/CDK5 activator 1 (Homo sapiens, UniProt Q00535). The format is protein-complex assay.

One may read the IC50 as the concentration needed to halve the response being measured. Read a low IC50 as greater potency in that assay.

Cyclin-dependent kinase 5/CDK5 activator 1, sequence (Q00535 whole entry): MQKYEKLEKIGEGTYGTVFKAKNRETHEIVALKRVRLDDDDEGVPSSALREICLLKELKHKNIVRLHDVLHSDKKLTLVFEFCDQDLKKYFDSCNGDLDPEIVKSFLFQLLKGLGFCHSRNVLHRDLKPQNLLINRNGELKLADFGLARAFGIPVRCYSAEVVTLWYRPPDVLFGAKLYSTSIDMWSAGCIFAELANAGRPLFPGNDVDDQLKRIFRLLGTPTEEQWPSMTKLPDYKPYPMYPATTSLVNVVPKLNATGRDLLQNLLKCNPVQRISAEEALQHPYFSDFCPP
Cyclin-dependent kinase 5/CDK5 activator 1, sequence (Q15078 whole entry, further chain): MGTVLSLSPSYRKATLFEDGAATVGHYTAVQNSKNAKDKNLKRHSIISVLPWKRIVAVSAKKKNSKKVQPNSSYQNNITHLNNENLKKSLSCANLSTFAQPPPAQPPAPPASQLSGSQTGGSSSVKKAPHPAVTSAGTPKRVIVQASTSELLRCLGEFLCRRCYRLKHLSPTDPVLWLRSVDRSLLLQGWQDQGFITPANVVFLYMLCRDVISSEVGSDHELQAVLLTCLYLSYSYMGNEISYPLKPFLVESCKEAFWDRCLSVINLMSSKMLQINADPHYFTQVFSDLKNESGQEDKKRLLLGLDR

As for `COC(=O)CSc1nnc(Cc2c(NC(=O)c3ccccc3)sc3c2CCCC3)n1NC(=O)c1ccc(Cl)cc1`, the IC50 turned out to be 293 nM. In the case of `O=C(CSc1nnc(Cc2c(NC(=O)c3ccccc3)sc3c2CCCC3)n1NC(=O)c1ccc(Cl)cc1)NNC(=O)c1ccccc1`, half-maximal inhibition (IC50) was put at 483 nM. With `CC(=O)Nn1c(Cc2c(NC(=O)c3ccccc3)sc3c2CCCC3)nnc1SCC#N`, the IC50 amounted to 564 nM. As for `O=C(CSc1nnc(Cc2c(NC(=O)c3ccccc3)sc3c2CCCC3)n1NC(=O)c1ccccc1)NNC(=O)c1ccccc1`, the figure is 466 nM. The value for `Nn1c(S)nnc1CSc1nnc(Cc2c(NC(=O)c3ccccc3)sc3c2CCCC3)n1NC(=O)c1ccc(Cl)cc1` was 3280 nM. As to `CC(=O)NNC(=O)CSc1nnc(Cc2c(NC(C)=O)sc3c2CCCC3)n1NC(=O)c1ccc(Cl)cc1`, it took 641 nM to reach half-maximal inhibition (IC50).

In turn, `O=C(O)CCNc1sc2c(c1Cc1nnc(SCSc3nnc(Cc4c(NCCC(=O)O)sc5c4CCCC5)n3NC(=O)c3ccc(Cl)cc3)n1NC(=O)c1ccc(Cl)cc1)CCCC2` returned an IC50 of 164 nM. As for `O=C(O)CCNc1sc2c(c1Cc1nnc(SCC(=O)NNC(=O)c3ccccc3)n1NC(=O)c1ccccc1)CCCC2`, the figure is 434 nM. The value for `CC(=O)Nc1sc2c(c1Cc1nnc(SCC#N)n1NC(=O)c1ccccc1)CCCC2` was 393 nM; that for `CC(=O)Nc1sc2c(c1Cc1nnc(SCC#N)n1NC(C)=O)CCCC2` was 458 nM; that for `N#CCSc1nnc(Cc2c(NCCC(=O)O)sc3c2CCCC3)n1NC(=O)c1ccccc1` was 4870 nM. `CC(=O)NNC(=O)CSc1nnc(Cc2c(NC(C)=O)sc3c2CCCC3)n1NC(=O)c1ccccc1` displayed an IC50 of 548 nM. The value for `O=C(O)CCNc1sc2c(c1Cc1nnc(SCC(=O)NNC(=O)CCl)n1NC(=O)c1ccc(Cl)cc1)CCCC2` was 185 nM; that for `Nn1c(CSc2nnc(Cc3c(NCCC(=O)O)sc4c3CCCC4)n2NC(=O)c2ccccc2)n[nH]c1=S` was 4990 nM; that for `O=C(O)CCNc1sc2c(c1Cc1nnc(SCSc3nnc(Cc4c(NCCC(=O)O)sc5c4CCCC5)n3NC(=O)c3ccccc3)n1NC(=O)c1ccccc1)CCCC2` was 577 nM. As for `COC(=O)CSc1nnc(Cc2c(NC(C)=O)sc3c2CCCC3)n1NC(=O)c1ccc(Cl)cc1`, the figure is 389 nM. As for `NNC(=O)CSc1nnc(Cc2c(NC(=O)c3ccccc3)sc3c2CCCC3)n1NC(=O)c1ccccc1`, the figure is 264 nM.

For `CC(=O)Nn1c(Cc2c(NC(=O)c3ccccc3)sc3c2CCCC3)nnc1SCC(=O)N/N=C/c1ccccc1`, the IC50 is 467 nM. The value for `CC(=O)Nn1c(Cc2c(NCCC(=O)O)sc3c2CCCC3)nnc1SCC(=O)NNC(=O)CCl` was 265 nM; that for `NNC(=O)CSc1nnc(Cc2c(NC(=O)c3ccccc3)sc3c2CCCC3)n1NC(=O)c1ccc(Cl)cc1` was 236 nM.

Regarding `CC(=O)Nn1c(Cc2c(NC(=O)c3ccccc3)sc3c2CCCC3)nnc1SCC(=O)NN`, it took 180 nM to reach half-maximal inhibition (IC50).

The compound `CC(=O)Nc1sc2c(c1Cc1nnc(SCC(=O)NNC(=O)c3ccccc3)n1NC(=O)c1ccccc1)CCCC2` yielded an IC50 of 413 nM. The value for `CC(=O)NNC(=O)CSc1nnc(Cc2c(NC(=O)c3ccccc3)sc3c2CCCC3)n1NC(=O)c1ccccc1` was 564 nM; that for `CC(=O)Nn1c(Cc2c(NCCC(=O)O)sc3c2CCCC3)nnc1SCC(=O)NN` was 931 nM; that for `CC(=O)Nc1sc2c(c1Cc1nnc(SCc3n[nH]c(=S)n3N)n1NC(=O)c1ccccc1)CCCC2` was 6440 nM.

With `CC(=O)Nn1c(S)nnc1Cc1c(NC(=O)c2ccccc2)sc2c1CCCC2`, the IC50 came out at 618 nM.

Compound `CC(=O)Nc1sc2c(c1Cc1nnc(SCc3nnc(S)n3N)n1NC(=O)c1ccc(Cl)cc1)CCCC2` displayed an IC50 of 6380 nM. The compound `COC(=O)CSc1nnc(Cc2c(NC(C)=O)sc3c2CCCC3)n1NC(=O)c1ccccc1` came in with an IC50 of 578 nM. The value for `CC(=O)Nc1sc2c(c1Cc1nnc(SCSc3nnc(Cc4c(NC(C)=O)sc5c4CCCC5)n3NC(C)=O)n1NC(C)=O)CCCC2` was 839 nM.

`CC(=O)Nn1c(Cc2c(NCCC(=O)O)sc3c2CCCC3)nnc1SCc1nnc(S)n1N` displayed an IC50 of 6210 nM. As to `CC(=O)NNC(=O)CSc1nnc(Cc2c(NC(=O)c3ccccc3)sc3c2CCCC3)n1NC(=O)c1ccc(Cl)cc1`, the IC50 was determined as 318 nM.

Turning to `CC(=O)Nc1sc2c(c1Cc1nnc(SCC(=O)NN)n1NC(=O)c1ccccc1)CCCC2`, the IC50 came to 192 nM. Compound `O=C(O)CCNc1sc2c(c1Cc1nnc(SCC(=O)N/N=C/c3ccccc3)n1NC(=O)c1ccccc1)CCCC2` displayed an IC50 of 267 nM.

Consider `CC(=O)Nn1c(Cc2c(NCCC(=O)O)sc3c2CCCC3)nnc1SCSc1nnc(Cc2c(NCCC(=O)O)sc3c2CCCC3)n1NC(C)=O`, for which half-maximal inhibition (IC50) required 734 nM.

Compound `CC(=O)NNC(=O)CSc1nnc(Cc2c(NCCC(=O)O)sc3c2CCCC3)n1NC(=O)c1ccc(Cl)cc1` returned an IC50 of 352 nM. The value for `NNC(=O)CSc1nnc(Cc2c(NCCC(=O)O)sc3c2CCCC3)n1NC(=O)c1ccc(Cl)cc1` was 201 nM. As for `CC(=O)Nc1sc2c(c1Cc1nnc(SCC(=O)N/N=C/c3ccccc3)n1NC(=O)c1ccccc1)CCCC2`, half-maximal inhibition (IC50) required 385 nM. The value for `O=C(CSc1nnc(Cc2c(NC(=O)c3ccccc3)sc3c2CCCC3)n1NC(=O)c1ccccc1)N/N=C/c1ccccc1` was 435 nM. As for `COC(=O)CSc1nnc(Cc2c(NCCC(=O)O)sc3c2CCCC3)n1NC(=O)c1ccc(Cl)cc1`, the figure is 541 nM; as for `CC(=O)Nn1c(Cc2c(NC(=O)c3ccccc3)sc3c2CCCC3)nnc1SCSc1nnc(Cc2c(NC(=O)c3ccccc3)sc3c2CCCC3)n1NC(C)=O`, 766 nM.

Consider `CC(=O)NNC(=O)CSc1nnc(Cc2c(NC(=O)c3ccccc3)sc3c2CCCC3)n1NC(C)=O`, for which it took 639 nM to reach half-maximal inhibition (IC50). As for `CC(=O)Nc1sc2c(c1Cc1nnc(SCc3n[nH]c(=S)n3N)n1NC(C)=O)CCCC2`, the IC50 amounted to 5150 nM. The value for `CC(=O)Nc1sc2c(c1Cc1nnc(SCSc3nnc(Cc4c(NC(C)=O)sc5c4CCCC5)n3NC(=O)c3ccccc3)n1NC(=O)c1ccccc1)CCCC2` was 646 nM; that for `CC(=O)Nn1c(Cc2c(NCCC(=O)O)sc3c2CCCC3)nnc1SCC(=O)NNC(=O)c1ccccc1` was 476 nM; that for `CC(=O)Nc1sc2c(c1Cc1nnc(SCC(=O)NNC(=O)c3ccccc3)n1NC(=O)c1ccc(Cl)cc1)CCCC2` was 525 nM. Take `O=C(O)CCNc1sc2c(c1Cc1nnc(S)n1NC(=O)c1ccc(Cl)cc1)CCCC2`: inhibition was half-maximal at 457 nM (IC50). As for `COC(=O)CSc1nnc(Cc2c(NC(=O)c3ccccc3)sc3c2CCCC3)n1NC(=O)c1ccccc1`, the figure is 353 nM; as for `CC(=O)Nc1sc2c(c1Cc1nnc(SCC(=O)NNC(=O)c3ccccc3)n1NC(C)=O)CCCC2`, 436 nM; as for `CC(=O)NNC(=O)CSc1nnc(Cc2c(NC(C)=O)sc3c2CCCC3)n1NC(C)=O`, 327 nM.

With `CC(=O)Nn1c(Cc2c(NC(=O)c3ccccc3)sc3c2CCCC3)nnc1SCC(=O)NNC(=O)c1ccccc1`, half-maximal inhibition (IC50) required 411 nM. `CC(=O)NNC(=O)CSc1nnc(Cc2c(NCCC(=O)O)sc3c2CCCC3)n1NC(C)=O` registered an IC50 of 366 nM. As for `O=C(Nc1sc2c(c1Cc1nnc(SCSc3nnc(Cc4c(NC(=O)c5ccccc5)sc5c4CCCC5)n3NC(=O)c3ccccc3)n1NC(=O)c1ccccc1)CCCC2)c1ccccc1`, the figure is 695 nM; as for `CC(=O)Nc1sc2c(c1Cc1nnc(SCC(=O)NNC(=O)CCl)n1NC(C)=O)CCCC2`, 474 nM. The value for `CC(=O)Nc1sc2c(c1Cc1n[nH]c(=S)n1NC(=O)c1ccc(Cl)cc1)CCCC2` was 460 nM.
